11 compounds from ChEMBL document CHEMBL1201862, “PubChem BioAssay data set” (2004) can be followed below.

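A five-concentration, 48-hour dose response in 96-well plates underlies each endpoint, interpolated linearly between surrounding concentrations. The concentration for 50% growth inhibition is given as GI50.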 The source made the active and inactive calls. Cut-off read from the data, not from the text of the source: active = GI50 up to about 1.1 µM and inactive = higher.

Some test systems named below: BT-549; CAKI-1; HCC 2998; HCT-15; HOP-92; K562; NCI-H460; NCI/ADR-RES; OVCAR-5; OVCAR-8; PC-3; RXF 393; SF-268; SK-MEL-2; SNB-19; SR; TK-10; UACC-257; UACC-62; A498.
Common to all, as to assay: NCI-60 cell line screen, 48 h

Consider `COc1cccc(C(C#N)NC23CC4CC(CC(C4)C2)C3)c1` (configuration not stated), for which the GI50 in the assay on BT-549 was > 100 µM (inactive); in the assay with CAKI-1, > 100 µM (inactive); in the assay with HCC 2998 it was > 100 µM (inactive); in the assay with HCT-15, above 100 µM; in the assay with HOP-92, > 100 µM (inactive); with K562, > 100 µM (inactive). The GI50 with NCI-H460, in the assay on NCI/ADR-RES, in the assay on OVCAR-5, in the assay with OVCAR-8, in the assay on PC-3 and with RXF 393 was > 100 µM (inactive) each time. The GI50 in the assay with SF-268, with SK-MEL-2, with SNB-19, in the assay with SR, in the assay with TK-10 and in the assay with UACC-257 was > 100 µM (inactive) throughout. For the same compound, the GI50 in the assay on UACC-62 is > 100 µM (inactive).
In the case of `CCC(=O)Nc1ccc(/N=C/c2cccc(Oc3ccccc3)c2)cc1`, the GI50 is > 100 µM (inactive) with A498; > 100 µM (inactive) in the assay with BT-549; > 100 µM (inactive) in the assay on CAKI-1; above 100 µM in the assay with HCT-15; 85.3 µM (inactive) with HOP-92; 24.4 µM (inactive) in the assay with K562. For the same compound, the GI50 was 42.3 µM (inactive) in the assay on NCI/ADR-RES; 22.3 µM (inactive) in the assay with OVCAR-8; 64.4 µM (inactive) in the assay on PC-3; 50.9 µM (inactive) in the assay with RXF 393; 42.1 µM (inactive) in the assay on SF-268; > 100 µM (inactive) in the assay on SK-MEL-2. Moreover, the GI50 in the assay with SNB-19 is > 100 µM (inactive); with SR, 16.2 µM (inactive); in the assay with UACC-62, 95.7 µM (inactive).
Turning to `Cc1cccc2c(=O)c3cccc([C@H](C)C(=O)O)c3oc12`, the GI50 with A498 is > 100 µM (inactive); in the assay on BT-549, > 100 µM (inactive); in the assay on CAKI-1, > 100 µM (inactive); in the assay on HCC 2998 it was > 100 µM (inactive); with HCT-15 it was above 100 µM; in the assay with HOP-92 it was > 100 µM (inactive). In addition, the GI50 with K562, in the assay on NCI-H460, in the assay with NCI/ADR-RES, in the assay with OVCAR-8, with PC-3 and in the assay with SF-268 was > 100 µM (inactive) throughout. In addition, the GI50 in the assay on SK-MEL-2, in the assay on SNB-19, in the assay with SR, in the assay with TK-10, in the assay on UACC-257 and with UACC-62 was > 100 µM (inactive) throughout.
Regarding `NCCN1C(=O)c2cc(Cl)c(Cl)cc2C1(O)c1ccc(Cl)cc1` (configuration not stated), the GI50 in the assay with A498 is 2.92 µM (inactive); in the assay with BT-549 it was 3.62 µM (inactive); in the assay with CAKI-1, 2.54 µM (inactive); with HCT-15, 2.4 µM; in the assay with HOP-92, 2.91 µM (inactive); in the assay on K562, 1.91 µM (inactive). Moreover, the GI50 with NCI-H460 is 1.79 µM (inactive); in the assay on NCI/ADR-RES, 2.42 µM (inactive); in the assay on OVCAR-5, 3.33 µM (inactive); in the assay with OVCAR-8 it was 2.03 µM (inactive); in the assay with PC-3 it was 4.98 µM (inactive); in the assay on RXF 393, 1.59 µM (inactive). In addition, the GI50 in the assay with SF-268 was 2.32 µM (inactive); in the assay with SK-MEL-2, 1.84 µM (inactive); with SNB-19, 2.82 µM (inactive); in the assay with SR, 2.02 µM (inactive); in the assay with TK-10 it was 1.92 µM (inactive); with UACC-257, 1.87 µM (inactive). In addition, the GI50 in the assay with UACC-62 was 1.79 µM (inactive).
On to `Nc1ccc(C(=O)O)cc1.Nc1nc(N)c2nc[nH]c2n1`, for which the GI50 in the assay with A498 is 13.6 µM (inactive); with BT-549 it was 78 µM (inactive); with CAKI-1 it was 13.6 µM (inactive); in the assay with HCT-15, 28.8 µM; in the assay on HOP-92, 79.3 µM (inactive); in the assay on K562, 20 µM (inactive). Further, the GI50 with NCI-H460 is 21.6 µM (inactive); with NCI/ADR-RES, 38.5 µM (inactive); with OVCAR-5 it was 17.1 µM (inactive); in the assay with OVCAR-8 it was 22.1 µM (inactive); with PC-3, 22.3 µM (inactive); in the assay on RXF 393 it was 12.1 µM (inactive). Also, the GI50 in the assay on SF-268 is 60.8 µM (inactive); in the assay with SK-MEL-2, 22.9 µM (inactive); with SNB-19, 40.7 µM (inactive); in the assay with SR, 33.2 µM (inactive); with TK-10, 19.8 µM (inactive); with UACC-257 it was 17.5 µM (inactive). Besides, the GI50 in the assay on UACC-62 is 11.1 µM (inactive).
`COc1cc2c(/C=C3/C(=O)Nc4cccc(Cl)c43)c(Cl)[nH]c2cc1C`: the GI50 in the assay with A498 was 8.67 µM (inactive); in the assay on BT-549, 1.46 µM (inactive); in the assay with CAKI-1 it was 1.86 µM (inactive); in the assay with HCT-15 it was 1.95 µM; in the assay with HOP-92, 8.17 µM (inactive); in the assay with K562, 1.76 µM (inactive). The GI50 is 1.72 µM (inactive) in the assay with NCI-H460; 1.65 µM (inactive) in the assay on NCI/ADR-RES; 4.02 µM (inactive) in the assay on OVCAR-5; 2.54 µM (inactive) with OVCAR-8; 2.68 µM (inactive) in the assay on PC-3; 2 µM (inactive) with RXF 393. Besides, the GI50 is 3.8 µM (inactive) with SF-268; 3.05 µM (inactive) with SK-MEL-2; 2.14 µM (inactive) in the assay on SNB-19; 1.41 µM (inactive) in the assay with SR; 1.06 µM (active) with TK-10; 2.26 µM (inactive) in the assay with UACC-257. Also, the GI50 in the assay with UACC-62 was 1.95 µM (inactive).
Consider `NC(CC1=CS(=O)(=O)c2ccc(Cl)cc21)C(=O)O` (configuration not stated), for which the GI50 in the assay with A498 is > 100 µM (inactive); with BT-549, > 100 µM (inactive); in the assay with CAKI-1 it was > 100 µM (inactive); in the assay with HCT-15, above 100 µM; with HOP-92, > 100 µM (inactive); in the assay with K562 it was > 100 µM (inactive). The GI50 was 89.9 µM (inactive) in the assay on NCI-H460; > 100 µM (inactive) with NCI/ADR-RES; > 100 µM (inactive) with OVCAR-5; > 100 µM (inactive) in the assay with OVCAR-8; > 100 µM (inactive) with PC-3; > 100 µM (inactive) in the assay on RXF 393. In addition, the GI50 was > 100 µM (inactive) in the assay on SF-268; > 100 µM (inactive) in the assay on SK-MEL-2; > 100 µM (inactive) with SNB-19; > 100 µM (inactive) in the assay with SR; > 100 µM (inactive) in the assay with TK-10; 54.7 µM (inactive) in the assay on UACC-257. Further, the GI50 in the assay with UACC-62 is > 100 µM (inactive).
For the compound `Cc1cccc(C(C)O)n1` (configuration not stated), the GI50 is > 100 µM (inactive) in the assay on A498; > 100 µM (inactive) in the assay on BT-549; > 100 µM (inactive) with CAKI-1; > 100 µM (inactive) in the assay with HCC 2998; above 100 µM in the assay on HCT-15; > 100 µM (inactive) in the assay on K562. Moreover, the GI50 in the assay with NCI-H460, in the assay with NCI/ADR-RES, in the assay on OVCAR-5, in the assay on OVCAR-8, with PC-3 and with SF-268 was > 100 µM (inactive) in each case. In addition, the GI50 with SK-MEL-2, in the assay with SNB-19, with SR, in the assay on TK-10, in the assay on UACC-257 and in the assay with UACC-62 was > 100 µM (inactive) each time.
Take `O=C(O)C1C2C=CC(O2)C1C(=O)Nc1ncccn1` (configuration not stated): the GI50 in the assay with A498 is > 100 µM (inactive); in the assay with BT-549 it was > 100 µM (inactive); with CAKI-1, > 100 µM (inactive); with HCT-15 it was above 100 µM; with HOP-92 it was > 100 µM (inactive); in the assay on K562, 97.9 µM (inactive). For the same compound, the GI50 in the assay with NCI-H460, in the assay with NCI/ADR-RES, in the assay with OVCAR-5, in the assay on OVCAR-8, in the assay on PC-3 and in the assay on RXF 393 was > 100 µM (inactive) in each case. Moreover, the GI50 in the assay with SF-268, in the assay on SK-MEL-2, with SNB-19, with SR, with TK-10 and with UACC-257 was > 100 µM (inactive) throughout. The GI50 in the assay with UACC-62 was > 100 µM (inactive).
For `O=C1N[C@@H]2O[C@H](CNC(=O)c3cc(Br)c[nH]3)C[C@]2(O)N1.O=C1N[C@H]2O[C@H](CNC(=O)c3cc(Br)c[nH]3)C[C@@]2(O)N1`, the GI50 was > 100 µM (inactive) in the assay on A498; > 100 µM (inactive) in the assay with BT-549; > 100 µM (inactive) with CAKI-1; above 100 µM with HCT-15; > 100 µM (inactive) in the assay with HOP-92; > 100 µM (inactive) in the assay on K562. Besides, the GI50 in the assay on NCI-H460, in the assay on NCI/ADR-RES, with OVCAR-5, in the assay on OVCAR-8, in the assay on PC-3 and in the assay with SF-268 was > 100 µM (inactive) each time. Moreover, the GI50 was > 100 µM (inactive) in the assay with SK-MEL-2; > 100 µM (inactive) in the assay with SNB-19; 0.379 µM (active) with SR; > 100 µM (inactive) in the assay on TK-10; > 100 µM (inactive) in the assay with UACC-257; > 100 µM (inactive) in the assay on UACC-62.
With `O=C(O)CCCCn1ccc(=O)[nH]c1=O`, the GI50 was > 100 µM (inactive) with A498; > 100 µM (inactive) in the assay with BT-549; > 100 µM (inactive) with CAKI-1; > 100 µM (inactive) with HCC 2998; above 100 µM in the assay with HCT-15; > 100 µM (inactive) in the assay on K562. Moreover, the GI50 in the assay on NCI-H460, in the assay on NCI/ADR-RES, in the assay on OVCAR-5, in the assay with OVCAR-8, in the assay on PC-3 and with RXF 393 was > 100 µM (inactive) in each case. Besides, the GI50 in the assay with SF-268, with SK-MEL-2, with SNB-19, in the assay with SR, in the assay on TK-10 and in the assay with UACC-257 was > 100 µM (inactive) throughout. Moreover, the GI50 in the assay with UACC-62 is > 100 µM (inactive).
